{"source": "the supplement of paper PMC10307832", "assay_in_all_cases": "relative viability (nuclei count vs DMSO), 5 days (fraction); higher = more cells survive", "key": {"[1]": {"tested_on": "ABC-1", "outline": "(§1)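 Lung cancer cell lines were pin-tool dosed in 1536-well plates on the day after seeding, with either a lone drug or a fixed anchor-drug dose plus five library-drug doses (not always all listed) in √10 steps. Nuclei were counted on 4× images after 5 days. Relative viability is the ratio of treated-well to vehicle-well nuclei counts, with each value a median of duplicate plates.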"}, "[2]": {"tested_on": "CAL-12T", "outline": "as §1"}, "[3]": {"tested_on": "COR-L 105", "outline": "as §1"}, "[4]": {"tested_on": "ChaGo-K-1", "outline": "as §1"}, "[5]": {"tested_on": "EMC-BAC-2", "outline": "as §1"}, "[6]": {"tested_on": "EPLC-272H", "outline": "as §1"}, "[7]": {"tested_on": "HCC-15", "outline": "as §1"}, "[8]": {"tested_on": "HOP-62", "outline": "as §1"}, "[9]": {"tested_on": "LXF-289", "outline": "as §1"}, "[10]": {"tested_on": "NCI-H1666", "outline": "as §1"}, "[11]": {"tested_on": "NCI-H1755", "outline": "as §1"}, "[12]": {"tested_on": "NCI-H1915", "outline": "as §1"}, "[13]": {"tested_on": "NCI-H1975", "outline": "as §1"}, "[14]": {"tested_on": "NCI-H1993", "outline": "as §1"}, "[15]": {"tested_on": "NCI-H2023", "outline": "as §1"}, "[16]": {"tested_on": "NCI-H2085", "outline": "as §1"}, "[17]": {"tested_on": "NCI-H2126", "outline": "as §1"}, "[18]": {"tested_on": "NCI-H3122", "outline": "as §1"}, "[19]": {"tested_on": "NCI-H322M", "outline": "as §1"}, "[20]": {"tested_on": "NCI-H358", "outline": "as §1"}, "[21]": {"tested_on": "NCI-H441", "outline": "as §1"}, "[22]": {"tested_on": "UMC-11", "outline": "as §1"}}}
{"smiles": "Oc1nc(-c2ccc(C(F)(F)F)cc2)nc2c1CSCC2", "note": "[XAV939] + CCNC(=O)c1noc(-c2cc(C(C)C)c(O)cc2O)c1-c1ccc(CN2CCOCC2)cc1 [Luminespib] (partner 0.01 µM)", "values": [{"measurement": "relative viability", "setting": "[1]; first compound 0.08 µM", "result": 0.778}, {"measurement": "relative viability", "setting": "[1]; first compound 0.253 µM", "result": 0.584}, {"measurement": "relative viability", "setting": "[1]; first compound 0.8 µM", "result": 0.795}, {"measurement": "relative viability", "setting": "[1]; first compound 2.53 µM", "result": 0.405}, {"measurement": "relative viability", "setting": "[2]; first compound 0.08 µM", "result": 0.54}, {"measurement": "relative viability", "setting": "[2]; first compound 0.253 µM", "result": 0.363}, {"measurement": "relative viability", "setting": "[2]; first compound 0.8 µM", "result": 0.363}, {"measurement": "relative viability", "setting": "[2]; first compound 2.53 µM", "result": 0.3}, {"measurement": "relative viability", "setting": "[3]; first compound 0.08 µM", "result": 0.964}, {"measurement": "relative viability", "setting": "[3]; first compound 0.253 µM", "result": 0.742}, {"measurement": "relative viability", "setting": "[3]; first compound 0.8 µM", "result": 0.458}, {"measurement": "relative viability", "setting": "[3]; first compound 2.53 µM", "result": 0.763}, {"measurement": "relative viability", "setting": "[4]; first compound 0.08 µM", "result": 0.586}, {"measurement": "relative viability", "setting": "[4]; first compound 0.253 µM", "result": 0.384}, {"measurement": "relative viability", "setting": "[4]; first compound 0.8 µM", "result": 0.508}, {"measurement": "relative viability", "setting": "[4]; first compound 2.53 µM", "result": 0.523}, {"measurement": "relative viability", "setting": "[5]; first compound 0.08 µM", "result": 1.37}, {"measurement": "relative viability", "setting": "[5]; first compound 0.253 µM", "result": 1.09}, {"measurement": "relative viability", "setting": "[5]; first compound 0.8 µM", "result": 0.971}, {"measurement": "relative viability", "setting": "[5]; first compound 2.53 µM", "result": 0.771}, {"measurement": "relative viability", "setting": "[6]; first compound 0.08 µM", "result": 0.954}, {"measurement": "relative viability", "setting": "[6]; first compound 0.253 µM", "result": 0.361}, {"measurement": "relative viability", "setting": "[6]; first compound 0.8 µM", "result": 0.317}, {"measurement": "relative viability", "setting": "[6]; first compound 2.53 µM", "result": 0.184}, {"measurement": "relative viability", "setting": "[7]; first compound 0.08 µM", "result": 0.465}, {"measurement": "relative viability", "setting": "[7]; first compound 0.253 µM", "result": 0.295}, {"measurement": "relative viability", "setting": "[7]; first compound 0.8 µM", "result": 0.302}, {"measurement": "relative viability", "setting": "[7]; first compound 2.53 µM", "result": 0.235}, {"measurement": "relative viability", "setting": "[8]; first compound 0.08 µM", "result": 1.01}, {"measurement": "relative viability", "setting": "[8]; first compound 0.253 µM", "result": 0.869}, {"measurement": "relative viability", "setting": "[8]; first compound 0.8 µM", "result": 1}, {"measurement": "relative viability", "setting": "[8]; first compound 2.53 µM", "result": 0.74}, {"measurement": "relative viability", "setting": "[9]; first compound 0.08 µM", "result": 0.727}, {"measurement": "relative viability", "setting": "[9]; first compound 0.253 µM", "result": 0.681}, {"measurement": "relative viability", "setting": "[9]; first compound 0.8 µM", "result": 0.778}, {"measurement": "relative viability", "setting": "[9]; first compound 2.53 µM", "result": 0.729}, {"measurement": "relative viability", "setting": "[10]; first compound 0.08 µM", "result": 1.07}, {"measurement": "relative viability", "setting": "[10]; first compound 0.253 µM", "result": 0.666}, {"measurement": "relative viability", "setting": "[10]; first compound 0.8 µM", "result": 0.981}, {"measurement": "relative viability", "setting": "[10]; first compound 2.53 µM", "result": 0.848}, {"measurement": "relative viability", "setting": "[11]; first compound 0.08 µM", "result": 0.522}, {"measurement": "relative viability", "setting": "[11]; first compound 0.253 µM", "result": 0.457}, {"measurement": "relative viability", "setting": "[11]; first compound 0.8 µM", "result": 0.361}, {"measurement": "relative viability", "setting": "[11]; first compound 2.53 µM", "result": 0.488}, {"measurement": "relative viability", "setting": "[12]; first compound 0.08 µM", "result": 1.11}, {"measurement": "relative viability", "setting": "[12]; first compound 0.253 µM", "result": 0.449}, {"measurement": "relative viability", "setting": "[12]; first compound 0.8 µM", "result": 0.849}, {"measurement": "relative viability", "setting": "[12]; first compound 2.53 µM", "result": 0.741}, {"measurement": "relative viability", "setting": "[13]; first compound 0.08 µM", "result": 0.217}, {"measurement": "relative viability", "setting": "[13]; first compound 0.253 µM", "result": 0.246}, {"measurement": "relative viability", "setting": "[13]; first compound 0.8 µM", "result": 0.204}, {"measurement": "relative viability", "setting": "[13]; first compound 2.53 µM", "result": 0.139}, {"measurement": "relative viability", "setting": "[14]; first compound 0.08 µM", "result": 0.779}, {"measurement": "relative viability", "setting": "[14]; first compound 0.253 µM", "result": 0.672}, {"measurement": "relative viability", "setting": "[14]; first compound 0.8 µM", "result": 0.748}, {"measurement": "relative viability", "setting": "[14]; first compound 2.53 µM", "result": 0.714}, {"measurement": "relative viability", "setting": "[15]; first compound 0.08 µM", "result": 0.888}, {"measurement": "relative viability", "setting": "[15]; first compound 0.253 µM", "result": 0.604}, {"measurement": "relative viability", "setting": "[15]; first compound 0.8 µM", "result": 0.589}, {"measurement": "relative viability", "setting": "[15]; first compound 2.53 µM", "result": 0.454}, {"measurement": "relative viability", "setting": "[16]; first compound 0.08 µM", "result": 0.446}, {"measurement": "relative viability", "setting": "[16]; first compound 0.253 µM", "result": 0.422}, {"measurement": "relative viability", "setting": "[16]; first compound 0.8 µM", "result": 0.431}, {"measurement": "relative viability", "setting": "[16]; first compound 2.53 µM", "result": 0.406}, {"measurement": "relative viability", "setting": "[17]; first compound 0.08 µM", "result": 0.985}, {"measurement": "relative viability", "setting": "[17]; first compound 0.253 µM", "result": 0.843}, {"measurement": "relative viability", "setting": "[17]; first compound 0.8 µM", "result": 0.869}, {"measurement": "relative viability", "setting": "[17]; first compound 2.53 µM", "result": 0.733}, {"measurement": "relative viability", "setting": "[18]; first compound 0.08 µM", "result": 0.0855}, {"measurement": "relative viability", "setting": "[18]; first compound 0.253 µM", "result": 0.0791}, {"measurement": "relative viability", "setting": "[18]; first compound 0.8 µM", "result": 0.0658}, {"measurement": "relative viability", "setting": "[18]; first compound 2.53 µM", "result": 0.0658}, {"measurement": "relative viability", "setting": "[19]; first compound 0.08 µM", "result": 1.06}, {"measurement": "relative viability", "setting": "[19]; first compound 0.253 µM", "result": 0.808}, {"measurement": "relative viability", "setting": "[19]; first compound 0.8 µM", "result": 0.86}, {"measurement": "relative viability", "setting": "[19]; first compound 2.53 µM", "result": 0.552}, {"measurement": "relative viability", "setting": "[20]; first compound 0.08 µM", "result": 0.289}, {"measurement": "relative viability", "setting": "[20]; first compound 0.253 µM", "result": 0.32}, {"measurement": "relative viability", "setting": "[20]; first compound 0.8 µM", "result": 0.293}, {"measurement": "relative viability", "setting": "[20]; first compound 2.53 µM", "result": 0.412}, {"measurement": "relative viability", "setting": "[21]; first compound 0.08 µM", "result": 0.374}, {"measurement": "relative viability", "setting": "[21]; first compound 0.253 µM", "result": 0.355}, {"measurement": "relative viability", "setting": "[21]; first compound 0.8 µM", "result": 0.245}, {"measurement": "relative viability", "setting": "[21]; first compound 2.53 µM", "result": 0.282}, {"measurement": "relative viability", "setting": "[22]; first compound 0.08 µM", "result": 1.04}, {"measurement": "relative viability", "setting": "[22]; first compound 0.253 µM", "result": 0.973}, {"measurement": "relative viability", "setting": "[22]; first compound 0.8 µM", "result": 1.02}, {"measurement": "relative viability", "setting": "[22]; first compound 2.53 µM", "result": 0.886}]}
